According to patent publication US9353419B2, “Biomarkers for IAP inhibitor therapy” (Novartis AG, priority 2012, dated 2016):

Columns and labels:
[1] = test system: panel of >500 tumor cell lines; experiment: 72 hour proliferation assay, single agent cellular activity against tumor cell line panel; type: cell-based
Text: We used a statistical framework that integrates pharmacological data together with genetic and mRNA expression data in order to develop biomarkers for predicting response to IAP inhibitors. Using genomic data generated as part of the Cancer Cell Line Encyclopedia collection (Barretina J S, Caponigro G, Stransky N et al (2012) Nature; 483:603-7), we assembled gene copy number, mRNA expression and mutation data into a single matrix. Single agent cellular activity of various IAP antagonists was assessed against a panel of >500 tumor cell lines using a 72 hour proliferation assay. We classified these cell lines into sensitive, intermediate and refractory classes based on the distribution of IC50 data and manual curation of individual responses. A statistical test was applied in order to identify genomic “features” that could differentiate IAP antagonist-sensitive cell lines from refractory lines. Among the top-ranked genes showing differential mRNA expression were TNF and RIPK1, two genes with evidence for apoptotic response to IAP antagonists based on previous experimental studies involving one or a few cell lines. We are thus able to extend prior observations on limited experiments systematically to a large set of data and identified an additional set of seven genes (CXLC10, CCL5, NFKBIA, HERC5, CDYL, STK39 and MAPK14), whose mRNAs were differentially expressed in sensitive compared refractory lines.
We built a predictive machine learning model using the Naive Bayes classifier based on the 9-gene signature as well as a 2-gene TNF/RIPK1 signature. […] For example, at model cutoffs optimized to obtain balanced performance between sensitivity and specificity for each model, the signatures yielded response rates of 16-18% in cross-validation compared to 8% response rate at random without any selection. This improved response rate was further validated in independent experimental testing of a compound-naive set of cell lines that were predicted to be sensitive (AUCs in Table 2).

[2] = test system: patient-derived tumor models representing triple negative breast cancer, NSCLC and pancreatic cancer; experiment: single agent activity in patient-derived tumor models (primary human tumors grown as xenografts in mice); type: in vivo
Text: In addition, (S)—N—((S)-1-Cyclohexyl-2-{(S)-2-[4-(4-fluoro-benzoyl)-thiazol-2-yl]-pyrrolidin-1-yl}-2-oxo-ethyl)-2-methylamino-propionamide has been tested for single agent activity in 55 patient-derived tumor models representing triple negative breast cancer, NSCLC and pancreatic cancer models.

CN[C@@H](C)C(=O)N[C@H](C(=O)N1CCC[C@H]1c1nc(C(=O)c2ccc(F)cc2)cs1)C1CCCCC1 [(S)—N—((S)-1-Cyclohexyl-2-{(S)-2-[4-(4-fluoro-benzoyl)-thiazol-2-yl]-pyrrolidin-1-yl}-2-oxo-ethyl)-2-methylamino-propionamide]
cell line response rate ([1]; at random, without any selection ("all-comers" cell lines)): 8%
increase in response rate compared to random or "all-comers" cell lines ([1]; at several model cutoff regimes of the predictive signatures): two- to three-fold
cell line response rate ([1]; cell lines selected by gene signatures (2-gene, 9-gene), balanced model cutoffs, cross-validation): 16-18%
single agent activity (range of responses) ([2]; 55 patient-derived tumor models): ranging from tumor regression to no effect
response rate ([2]; at random, 55 patient-derived tumor models): 11%
response rate ([2]; models selected by 2-gene, 3-gene and 9-gene signatures, balanced model cutoffs): ~30%
